Reference: patent publication US20250195553A1, “Use of Genipin-1-B-D-Gentiobioside in Preparation of Drug” (Guizhou Bailing Group Pharmaceutical Co., Ltd., priority 2023, published 2025)
Read-outs that look alike come from different tables or passages of the source.

How the values were obtained:
SARS-CoV-2 = assay: Protective effect against death in SARS-CoV-2 infected mice; type: in vivo, hACE2 transgenic C57BL/6 mice; conditions: for Number of Survivors / Number of Deaths: 8 mice; for Number of Deaths: 5-day
Method: 1.1 Test Drug: Genipin-1-β-D-gentiobioside. […] Dosage for mice: 37.5 mg/kg and 75 mg/kg, administered by intraperitoneal injection once daily for 5 consecutive days.
1.2 Experimental Animals: human angiotensin-converting enzyme 2 (hACE2) transgenic C57BL/6 mice, aged 6˜7 weeks, weighing 18˜25 g, a total of 32 mice provided by GemPharmatech Co., Ltd., with a license number of SCXK (Su) 2018-008.
2.1 Grouping and Drug Administration: hACE2 transgenic C57BL/6 mice were divided into four groups, namely the blank control group, the SARS-CoV-2 infection group, the Genipin-1-β-D-gentiobioside (37.5 mg/kg) treatment group, and the Genipin-1-β-D-gentiobioside (75 mg/kg) treatment group, with 8 mice in each group. Except for the normal group, which received intranasal administration of Phosphate Buffered Saline (PBS), the other groups were infected with 10^4 Plaque Forming Unit (PFU) of Severe Acute Respiratory Syndrome Coronavirus 2 (SARS-CoV-2) virus via intranasal instillation. Two hours' post-infection, the treatment groups received intraperitoneal injections of the drug once daily for 5 consecutive days. Mouse deaths were recorded daily after infection, and the 5-day mortality rate was calculated. At the end of the experiment, the lung tissues were collected and homogenized for virus titer detection.

[1] = system: Human Coronavirus OC43 (HCoV-OC43); type: in vivo; conditions: OC43
[2] = system: Lipopolysaccharide (LPS)-induced pneumonia model in mice; assay: Inflammatory factors in lung tissue of LPS-induced pneumonia mice (ELISA); type: in vivo, ICR mice; conditions: i.v.
Method: Sixty healthy mice, weighing 18˜20 g, half male and half female, were selected and randomly grouped after stratification by weight; they were divided into a normal control group, a model control group, three Genipin-1-β-D-gentiobioside dose groups (150 mg/kg/d, 75 mg/kg/d, 37.5 mg/kg/d), and a positive control drug Sivelestat Sodium 50 mg/kg/d group, with 10 mice in each group, half male and half female. After grouping, each treatment group was administered intravenously at 20 ml/kg once daily for 2 consecutive days, while the normal control group and model control group were injected with physiological saline. One hour after the second dose, except for the normal control group, the other groups were lightly anesthetized with isoflurane, and a 20 mg/ml LPS physiological saline solution was administered intranasally to the mice at 0.05 ml/mouse to induce the pneumonia model. Six hours after infection, the animals were sacrificed, dissected, and their lungs were removed and weighed to calculate the lung index (lung index=lung weight/body weight×100%).
(1) Sample Collection and Storage: Tissue homogenate samples: The lung tissues of mice were collected and weighed, including those from mice numbered 1, 2, 3, 6, 7, and 8 in each group. The tissues were stored at […] An ultrasonic cell disruptor was used to homogenize the tissues, followed by centrifugation at […] and 1000 r/min for 10 minutes using a low-temperature high-speed centrifuge. The supernatant was then collected, aliquoted, and stored at −80° C. for future use, avoiding repeated freeze-thaw cycles.
(2) The microwell plate, which had been equilibrated to room temperature, was removed from the sealed bag. Different concentrations of standards, experimental samples, or quality control samples were added to the corresponding wells, with 100 μL per well. The reaction wells were sealed with sealing tape and incubated at room temperature for 2 hours. The plate was then washed with wash buffer, repeating the operation four times. After the final wash, the plate was inverted and all residual liquid was patted dry on absorbent paper. Next, 100 μL of enzyme-labeled detection antibody was added to each microwell. The reaction wells were sealed again with sealing tape and incubated at room temperature for another 2 hours. The washing step was repeated as described above. Then, 100 μL of substrate solution was added to each microwell and incubated at room temperature for 30 minutes, protected from light. Within 30 minutes after adding 100 μL of stop solution to each microwell, the absorbance at 450 nm was measured using a microplate reader. The results were then calculated.

[3] = Median particle size of nebulized test drug solutions; type: physicochemical
Method: 1. Genipin-1-β-D gentiobioside 75 mg/ml group, median particle size is 2.02±0.06 μm; Genipin-1-β-D gentiobioside 37.5 mg/ml group, median particle size is 2.12±0.08 μm; Genipin-1-β-D gentiobioside […] group, median particle size is 2.01±0.09 μm; and Genipin-1-β-D gentiobioside 9.375 mg/ml group, median particle size is 2.07±0.06 μm. The nebulization time for each group is 25 minutes.

[4] = 37.5 mg/kg intraperitoneal once daily 5 days
[5] = 75 mg/kg intraperitoneal once daily 5 days

## COC(=O)C1=CO[C@@H](O[C@@H]2O[C@H](CO[C@@H]3O[C@H](CO)[C@@H](O)[C@H](O)[C@H]3O)[C@@H](O)[C@H](O)[C@H]2O)[C@@H]2C(CO)=CC[C@H]12 [Genipin-1-β-D-gentiobioside]
SARS-CoV-2; [4]
  Death Rate: 37.5%
  Survival Rate: 62.5%
  Number of Survivors: 5
  Number of Deaths: 3
SARS-CoV-2; [5]
  Death Rate: 25%
  Survival Rate: 75%
  Number of Survivors: 6
  Number of Deaths: 2
[1]; 37.5 mg/kg/d i.v. 4 days
  Inhibition Rate (lung index): 41.59%
  Lung Index: 0.80 ± 0.08 g lung weight × 100 g/body weight
[1]; 75 mg/kg/d i.v. 4 days
  Inhibition Rate (lung index): 42.34%
  Lung Index: 0.80 ± 0.05 g lung weight × 100 g/body weight
[1]; 150 mg/kg/d i.v. 4 days
  Inhibition Rate (lung index): 39.93%
  Lung Index: 0.80 ± 0.07 g lung weight × 100 g/body weight
[2]; dosage 37.5 (mg/ml)
  Inflammatory Factor Levels in Lung Tissue IL-6: 16.53 ± 1.91 pg/mL
  Inflammatory Factor Levels in Lung Tissue IL-10: 39.00 ± 8.37 pg/mL
  Inflammatory Factor Levels in Lung Tissue TNF-α: 106.13 ± 15.70 pg/mL
[2]; dosage 75 (mg/ml)
  Inflammatory Factor Levels in Lung Tissue IL-6: 17.72 ± 2.15 pg/mL
  Inflammatory Factor Levels in Lung Tissue IL-10: 35.75 ± 6.74 pg/mL
  Inflammatory Factor Levels in Lung Tissue TNF-α: 119.71 ± 19.76 pg/mL
[2]; dosage 150 (mg/ml)
  Inflammatory Factor Levels in Lung Tissue IL-6: 16.63 ± 2.19 pg/mL
  Inflammatory Factor Levels in Lung Tissue IL-10: 36.00 ± 5.14 pg/mL
  Inflammatory Factor Levels in Lung Tissue TNF-α: 100.25 ± 12.41 pg/mL
[3]; 9.375 mg/ml group
  Median particle size: 2.07±0.06 μm
[3]; 18.755 mg/ml group
  Median particle size: 2.01±0.09 μm
[3]; 37.5 mg/ml group
  Median particle size: 2.12±0.08 μm
[3]; 75 mg/ml group
  Median particle size: 2.02±0.06 μm
